How the values were obtained:
hMC4R [1] = biological target: T1, hMC4R (Homo sapiens, UniProt P32245); assay: Plasmon waveguide resonance (PWR) spectrum of hMC4R membranes with agonists
T1 construct: expressed in transfected cells; host or cells: HEK293
Text: PWR uses polarized light generated from a CW He—Ne laser (λ=632.8 nm or λ=543.5 nm), which passes through a glass prism under total internal reflection conditions. A thin metal film (Ag), which is deposited on the external surface of the prism, is overcoated with another thin layer of SiO2 as dielectric media. When there is an object attached to the dielectric layer of SiO2, and polarized laser forms a specific incident angle with the outer surface layer, the resonant excitation of collective electronic oscillations (plasmons) happens and generates an evanescent electromagnetic field localized at the dielectric film, which gives the absorption spectrum at that specific angle. This can be used to probe the optical properties of molecules immobilized on the outer surface of the prism. Resonance is achieved either by varying the laser light wavelength at a fixed angle or by varying the angle at a fixed laser wavelength(we used the latter one in this research). Any changes of the immobilized yield distinct incident angle that evanescence happens in the dielectric layer. Due to the ability that laser light can be polarized to either parallel (p) or perpendicular (s) to the incident plane, characterization of the molecular organization of anisotropic systems can be fulfilled, such as biomembranes containing integral proteins. Under the experimental conditions described herein, the optical parameters obtained with the p-polarization refer to the perpendicular direction, and those obtained with s-polarization refer to the parallel direction, relative to the bilayer membrane surface.
Resonance spectra in this study were obtained using a PWR instrument from Biopeptek Pharmaceuticals LLC. […] Recombinant HEK293 cells expressing the hMC4R were grown to confluency. The confluent cell monolayers were then washed with Ca^2+ and Mg^2+-deficient phosphate-buffered saline and were harvested in the same buffer containing 0.02% ethylenediaminetetraacetic acid (EDTA). After centrifugation at 1500 g for 10 minutes, the cells were homogenized in an ice-cold 10 mM Tris-HCl buffer and 1 mM EDTA (pH 7.4). A crude membrane fraction was collected by centrifugation at 40,000 g for 20 minutes at −4° C. and was stored at −80° C. until use. Before the PWR experiment, the membrane fraction was resuspended in a 20 mM Tris-HCl buffer (pH 7.4) by mild homogenization. Protein concentration was determined by using a Bradford assay.
Under the experimental conditions employed herein, the oscillation of light with p-polarization reflects the dimension of objects perpendicular to the membrane, and those obtained under the s-polarization vector refer to the dimension in parallel with the bilayer membrane surface.

hMC4R [2] = biological target: T1, hMC4R; assay: Competitive receptor binding assay, whole HEK293 cells, 125I-NDP-α-MSH; conditions: 40 min; hM4CR; percentage of [125I]NDP-α-MSH displacement at 10 μM; read-out: BE%
Method: (§1) Competition binding experiments were performed on whole cells. The transfected HEK293 cell line with hMC4Rs were seeded on 96 well plates, 48 hours before the assay, 100,000 cells/well. For the assay, the medium was removed and cells were washed twice with a freshly prepared binding buffer containing 100% minimum essential medium with Earle's salt (MEM, GIBCO), 25 mM HEPES (pH 7.4), 0.2% bovine serum albumin, 1 mM 1,10-phenanthroline, 0.5 mg/L leupeptin, and 200 mg/L bacitracin. […] The medium was subsequently removed and each well was washed twice with the assay buffer. The cells are lysed by the addition of 250 μL of 0.1 NaOH and 250 μL of 1% Triton X-100. […] Data were analyzed using Graphpad Prism 6.0 (Graphpad Software, San Diego, CA).
IC50 and EC50 values represent the mean of duplicate experiments performed in triplicate. IC50 and EC50 estimates and their associated standard errors were determined by fitting the data using nonlinear least-squares analysis, with the help of Graphpad Prism 6.0 (Graphpad Software, San Diego, CA). […]

hMC4R [3] = biological target: T1, hMC4R; assay: Adenylate cyclase (cAMP) assay in transfected HEK293 cells; type: cell-based; conditions: HEK293, 0.05 h; hM4CR; percentage of cAMP produced at 10 μM in relation to MT-II; read-out: Act%
Method: The cells were seeded on 96 well plates 48 hours before the assay, (100,000 cells/well). For the assay, the medium was removed and cells were rinsed with 1 mL of MEM buffer (GIBCO) or with Earle's balanced salt solution (EBSS, GIBCO). An aliquot (0.4 mL) of Earle's balanced salt solution was placed in each well along with isobutylmethylxanthine (IBMX; 5 μL; 0.5 mM) for 1 minute at 37° C. Varying concentrations of melanotropins (0.1 mL) were added and the cells incubated for 3 minutes at 37° C. The reaction was stopped by aspirating the buffer and adding ice-cold Tris/EDTA buffer to each well (0.15 mL). The 96 well plates were covered and placed on ice. After dislodging the cells, the plates were placed in a boiling water bath for 15 minutes. The cell lysate was then centrifuged for 10 minutes (4000 rpm), and 50 μL of the supernatant was aliquoted into perkinElmer glass fiber filter plate. cAMP content was measured by competitive binding assay in addition to 50 μL H^3 cAMP and 100 μL PKA. Then the system was placed on ice for 2 hours and then vacuum and filtered. 100 μL of the OptiPhase Supermix scintillation fluid was added to the plate. The plates stayed for 8 hours and then read by MicroBeta radiation plate reader. IC50 and EC50 values represent the mean of duplicate experiments performed in triplicate. […] NA indicates 0% cAMP accumulation observed at 10 μM. The peptides were tested over a range of concentrations from 10^-10 to 10^-5 M.

hMC1R [4] = biological target: T2, hMC1R (Homo sapiens, UniProt Q01726); assay: Competitive receptor binding assay, whole HEK293 cells, 125I-NDP-α-MSH; conditions: for inhibition at 10 µM: 40 min, hM1CR, percentage of NDP-α-MSH displacement at 10 μM, read-out: BE %
T2 construct: expressed in transfected cells; host or cells: HEK293
Method: [The procedure below names another target; the source lists this target under the same test.] (§2) Competition binding experiments were performed on whole cells. The transfected HEK293 cell line with hMC4Rs were seeded on 96 well plates, 48 hours before the assay, 100,000 cells/well. For the assay, the medium was removed and cells were washed twice with a freshly prepared binding buffer containing 100% minimum essential medium with Earle's salt (MEM, GIBCO), 25 mM HEPES (pH 7.4), 0.2% bovine serum albumin, 1 mM 1,10-phenanthroline, 0.5 mg/L leupeptin, and 200 mg/L bacitracin. […] The medium was subsequently removed and each well was washed twice with the assay buffer. The cells are lysed by the addition of 250 μL of 0.1 NaOH and 250 μL of 1% Triton X-100. The lysed cell was transferred to the 12×75 mm glass tubes and the radioactivity was measured by Wallac 1470 WIZARD Gamma Counter. Data were analyzed using Graphpad Prism 6.0 (Graphpad Software, San Diego, CA).
(§3) IC50 and EC50 values represent the mean of duplicate experiments performed in triplicate. IC50 and EC50 estimates and their associated standard errors were determined by fitting the data using nonlinear least-squares analysis, with the help of Graphpad Prism 6.0 (Graphpad Software, San Diego, CA).
(§4) NA indicates 0% cAMP accumulation observed at 10 μM. The peptides were tested over a range of concentrations from 10^-10 to 10^-5 M.

hMC3R [5] = biological target: T3, hMC3R (Homo sapiens, UniProt P41968); assay: as above; conditions: 40 min; hM3CR; percentage of NDP-α-MSH displacement at 10 μM; read-out: BE %
T3 construct: expressed in transfected cells; host or cells: HEK293
Method: [The procedure below names another target; the source lists this target under the same test.] as §2, §3, §4

hMC5R [6] = biological target: T4, hMC5R (Homo sapiens, UniProt P33032); assay: as above; conditions: 40 min; hM5CR; percentage of NDP-α-MSH displacement at 10 μM; read-out: BE %
T4 construct: expressed in transfected cells; host or cells: HEK293
Method: [The procedure below names another target; the source lists this target under the same test.] as §1, §3, §4

hMC1R [7] = biological target: T2, hMC1R; assay: Adenylate cyclase (cAMP) assay in transfected HEK293 cells; type: cell-based; conditions: HEK293, 0.05 h; hM1CR; cAMP at 10 μM in relation to MT-II; read-out: Act %
Method: (§5) HEK293 cells transfected with human melanocortin receptors were grown to confluence in MEM medium (GIBCO) containing 10% fetal bovine serum, 100 units/mL penicillin and streptomycin, and 1 mM sodium pyruvate. The cells were seeded on 96 well plates 48 hours before the assay, (100,000 cells/well). For the assay, the medium was removed and cells were rinsed with 1 mL of MEM buffer (GIBCO) or with Earle's balanced salt solution (EBSS, GIBCO). An aliquot (0.4 mL) of Earle's balanced salt solution was placed in each well along with isobutylmethylxanthine (IBMX; 5 μL; 0.5 mM) for 1 minute at 37° C. Varying concentrations of melanotropins (0.1 mL) were added and the cells incubated for 3 minutes at 37° C. The reaction was stopped by aspirating the buffer and adding ice-cold Tris/EDTA buffer to each well (0.15 mL). The 96 well plates were covered and placed on ice. After dislodging the cells, the plates were placed in a boiling water bath for 15 minutes. The cell lysate was then centrifuged for 10 minutes (4000 rpm), and 50 μL of the supernatant was aliquoted into perkinElmer glass fiber filter plate. cAMP content was measured by competitive binding assay in addition to 50 μL H^3 cAMP and 100 μL PKA. Then the system was placed on ice for 2 hours and then vacuum and filtered. 100 μL of the OptiPhase Supermix scintillation fluid was added to the plate. The plates stayed for 8 hours and then read by MicroBeta radiation plate reader.
as §3, §4

hMC3R [8] = biological target: T3, hMC3R; assay: as above; type: cell-based; conditions: HEK293, 0.05 h; hM3CR; cAMP at 10 μM in relation to MT-II; read-out: Act %
Method: as §5, §3, §4

hMC5R [9] = biological target: T4, hMC5R; assay: as above; type: cell-based; conditions: HEK293, 0.05 h; hM5CR; cAMP at 10 μM in relation to MT-II; read-out: Act %
Method: as §5, §3, §4

T1 sequence (P32245 whole entry): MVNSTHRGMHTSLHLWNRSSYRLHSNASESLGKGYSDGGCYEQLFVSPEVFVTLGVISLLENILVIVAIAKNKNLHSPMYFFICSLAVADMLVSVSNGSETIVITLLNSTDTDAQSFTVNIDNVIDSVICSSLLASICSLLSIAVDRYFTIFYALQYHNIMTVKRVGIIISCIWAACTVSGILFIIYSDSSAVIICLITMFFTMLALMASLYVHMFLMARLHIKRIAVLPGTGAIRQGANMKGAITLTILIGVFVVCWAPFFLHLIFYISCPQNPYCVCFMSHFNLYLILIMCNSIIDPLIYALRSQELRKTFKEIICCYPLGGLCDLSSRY
T3 sequence (P41968 whole entry): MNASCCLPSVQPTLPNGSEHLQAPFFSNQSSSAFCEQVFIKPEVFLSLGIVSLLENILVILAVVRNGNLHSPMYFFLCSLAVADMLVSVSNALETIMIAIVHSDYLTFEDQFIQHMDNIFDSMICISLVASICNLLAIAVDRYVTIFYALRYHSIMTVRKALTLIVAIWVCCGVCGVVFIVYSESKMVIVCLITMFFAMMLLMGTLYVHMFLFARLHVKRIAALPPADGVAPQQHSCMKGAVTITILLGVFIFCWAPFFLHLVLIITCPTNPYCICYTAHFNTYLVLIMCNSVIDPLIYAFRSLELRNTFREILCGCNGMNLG
T4 sequence (P33032 whole entry): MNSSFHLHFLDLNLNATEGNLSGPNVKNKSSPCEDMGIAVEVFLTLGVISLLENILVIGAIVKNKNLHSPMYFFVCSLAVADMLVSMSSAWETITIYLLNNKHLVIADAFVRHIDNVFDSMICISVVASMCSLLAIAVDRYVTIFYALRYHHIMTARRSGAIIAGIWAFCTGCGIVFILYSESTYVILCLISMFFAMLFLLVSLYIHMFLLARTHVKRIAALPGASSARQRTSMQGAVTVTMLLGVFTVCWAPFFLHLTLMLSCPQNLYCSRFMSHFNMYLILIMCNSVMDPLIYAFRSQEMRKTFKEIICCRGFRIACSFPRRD
T2 sequence (Q01726 whole entry): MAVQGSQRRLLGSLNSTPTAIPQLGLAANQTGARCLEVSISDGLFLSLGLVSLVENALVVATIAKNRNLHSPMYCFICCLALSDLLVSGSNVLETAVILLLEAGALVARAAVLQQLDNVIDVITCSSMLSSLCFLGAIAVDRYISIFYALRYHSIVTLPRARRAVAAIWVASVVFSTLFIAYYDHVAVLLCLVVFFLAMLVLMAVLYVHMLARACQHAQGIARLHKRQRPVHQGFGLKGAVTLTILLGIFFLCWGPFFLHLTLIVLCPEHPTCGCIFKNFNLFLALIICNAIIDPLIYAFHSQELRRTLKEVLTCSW

SMILES	PWR left shift under p-polarization relative to hMC4R sole (hMC4R [1]; p-polarization, left shifted)	PWR absorbance location under s-polarization (hMC4R [1]; s-polarization, sole MC4R 33.29)	inhibition at 10 µM (hMC4R [2])	Emax at 10 µM (hMC4R [3])	inhibition at 10 µM (hMC1R [4])	inhibition at 10 µM (hMC3R [5])	inhibition at 10 µM (hMC5R [6])	Emax at 10 µM (hMC1R [7])	Emax at 10 µM (hMC3R [8])	Emax at 10 µM (hMC5R [9])	hMC1R binding affinity (in words) (hMC1R [4]; compared with the other analogues)
CC(=O)N[C@@H](CCCNC(=N)N)C(=O)N[C@H]1CSSC[C@@H](C(N)=O)NC(=O)[C@H](Cc2c[nH]c3ccccc23)NC(=O)[C@H](CCCNC(=N)N)NC(=O)[C@@H](Cc2ccccc2)NC(=O)[C@H](Cc2c[nH]cn2)NC(=O)[C@@H](C)NC1=O [RM493, reference compound]	0.25 degrees	32.97	–	–	–	–	–	–	–	–	–
CC(=O)N[C@@H](CCCNC(=N)N)C(=O)N[C@H]1CC(=O)NCCCC[C@@H](C(N)=O)NC(=O)[C@H](Cc2c[nH]c3ccccc23)NC(=O)C[C@H](CCCNC(=N)N)NC(=O)[C@@H](Cc2ccccc2)NC(=O)[C@@H]2CCCCN2C1=O [compound 2, Ac-Arg-cyclo[Asp-Pip-D-Phe-βArg-Trp-Lys]-NH2]	–	–	100%	67%	100%	24%	0%	120%	89%	90%	–
CC(=O)N[C@@H](CCCNC(=N)N)C(=O)N[C@H]1CC(=O)NCCCC[C@@H](C(N)=O)NC(=O)C[C@H](Cc2c[nH]c3ccccc23)NC(=O)C[C@H](CCCNC(=N)N)NC(=O)[C@@H](Cc2ccccc2)NC(=O)[C@@H]2CCCCN2C1=O [compound 3, Ac-Arg-cyclo[Asp-Pip-D-Phe-βArg-BTrp-Lys]-NH2]	–	–	100%	84%	30%	100%	46%	82%	87%	82%	lower binding affinities than the others
CC(=O)N[C@@H](CCCNC(=N)N)C(=O)N[C@H]1CC(=O)NCCCC[C@@H](C(N)=O)NC(=O)C[C@H](Cc2c[nH]c3ccccc23)NC(=O)[C@H](CCCNC(=N)N)NC(=O)[C@@H](Cc2ccc(F)cc2)NC(=O)[C@@H]2CCCCN2C1=O [compound 4, Ac-Arg-cyclo[Asp-Pip-D-Phe(4-F)-Arg-BTrp-Lys]-NH2]	–	–	9%	46%	100%	100%	100%	90%	76%	72%	–

Source: patent publication US20260049105A1, “SELECTIVE MC4R LIGAND FOR TREATING OBESITY AND COGNITIVE LOSS” (ARIZONA BOARD OF REGENTS ON BEHALF OF THE UNIVERSITY OF …, priority 2022, published 2026)
